For eleven compounds, inhibition results are on record in PubChem BioAssay AID1347054 (Pharmacoinformatics Research Group Wien, 2019).

Calls of active or inactive are those of the source.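 How the source made its calls: active means clear block of the BCRP drug efflux pump at 10 µM versus solvent-only wells, p under 0.05; inactive means the rest.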

The target in this experiment is Broad substrate specificity ATP-binding cassette transporter ABCG2 (Homo sapiens) (UniProt Q9UNQ0). Nature of the experiment: ABCG2-mediated mitoxantrone transport inhibition – PLB985 cells, flow cytometry (AID 1347054). To be noted: PLB985-BCRP cells, mitoxantrone accumulation, at 10 µM, hits give high values. A general note: Flow cytometry measures light scatter and fluorescence of single cells or particles in a stream.
Chain of Broad substrate specificity ATP-binding cassette transporter ABCG2 (Homo sapiens) (Q9UNQ0 whole entry, looked up): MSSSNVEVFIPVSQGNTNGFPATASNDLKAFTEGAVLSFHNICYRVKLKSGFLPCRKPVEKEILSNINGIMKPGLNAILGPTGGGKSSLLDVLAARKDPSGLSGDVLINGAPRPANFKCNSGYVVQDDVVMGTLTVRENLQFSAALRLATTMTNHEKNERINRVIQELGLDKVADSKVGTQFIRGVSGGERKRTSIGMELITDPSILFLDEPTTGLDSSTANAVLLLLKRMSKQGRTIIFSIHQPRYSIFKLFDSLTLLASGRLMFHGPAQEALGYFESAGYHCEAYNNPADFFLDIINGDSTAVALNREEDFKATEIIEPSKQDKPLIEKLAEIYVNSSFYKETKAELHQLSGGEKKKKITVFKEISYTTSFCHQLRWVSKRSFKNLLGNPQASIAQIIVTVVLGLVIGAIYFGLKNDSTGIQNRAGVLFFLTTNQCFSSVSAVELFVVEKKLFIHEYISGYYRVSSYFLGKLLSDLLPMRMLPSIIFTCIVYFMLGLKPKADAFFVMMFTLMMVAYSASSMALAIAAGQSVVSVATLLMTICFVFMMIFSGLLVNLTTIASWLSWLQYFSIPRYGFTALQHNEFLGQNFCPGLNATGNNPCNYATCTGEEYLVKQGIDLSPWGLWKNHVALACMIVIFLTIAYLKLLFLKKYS
Broadly, the inhibition is the change of the read-out against control, counted positive when it falls. On to `CN(Cc1ccc(C(C)(C)C)cc1)Cc1cccc2ccccc12`, for which the inhibition was 10.8% (inactive).

In the case of `O=C(Nc1c(Cl)cncc1Cl)c1ccc(OC(F)F)c(OCC2CC2)c1`, the inhibition was 61.7%.

As to `CN(C/C=C/C#CC(C)(C)C)Cc1cccc2ccccc12`, the inhibition was 9.86% (inactive).

Regarding `C[C@]12CCC(=O)C=C1[C@@H]1C[C@@H]1[C@H]1[C@@H]3[C@@H]4C[C@@H]4[C@@]4(CCC(=O)O4)[C@@]3(C)CC[C@@H]12`, the inhibition was 14.4% (inactive).

Regarding `CS(C)=O`, the inhibition was 0% (inactive).

Take `CCCCN(CCCC)CCC(O)c1cc2c(Cl)cc(Cl)cc2c2cc(C(F)(F)F)ccc12` (stereo unspecified): the inhibition was -9.66% (inactive).

`C=C1CC[C@H](O)C/C1=C/C=C1\CCC[C@]2(C)[C@@H]([C@H](C)CCCC(C)C)CC[C@@H]12`: the inhibition is 1.28% (inactive).

For the compound `COc1cc(NS(C)(=O)=O)ccc1Nc1c2ccccc2nc2ccccc12`, the inhibition was 13.7% (inactive).

Take `COc1cc(N)c(Cl)cc1C(=O)N[C@@H]1CCN(CCCOc2ccc(F)cc2)C[C@@H]1OC`: the inhibition was 83.8%.

As to `COc1ccc2c(c1)C13CCCC[C@@H]1C(C2)N(C)CC3` (stereo partly specified), the inhibition was -6.11% (inactive).

In the case of `COc1ccc(C(=O)Nc2ccccc2CCC2CCCCN2C)cc1` (stereo unspecified), the inhibition was 13.3% (inactive).
